Measured values reported in PMC8264259, “A Novel Ruthenium(II) Complex With Lapachol Induces G2/M Phase Arrest Through Aurora-B Kinase Down-Regulation and ROS-Mediated Apoptosis in Human Prostate Adenocarcinoma Cells” (Frontiers in Oncology, 2021).

Tests used:
[1] = test system: A549 (human lung carcinoma); test: Alamar blue cytotoxicity assay, A549; type: cell-based; settings: for IC50: A549, Alamar blue, 24-h incubation, mean ± S.E.M.
Excerpt: (§1) Human lung carcinoma (A549, ATCC® CCL-185™), human hepatocellular carcinoma (HepG2, ATCC® HB-8065™), and human breast adenocarcinoma (MDA-MB-231, ATCC® HTB-26™) were obtained from American Type Cell Collection (ATCC). Human melanoma (A-375, BCRJ-0278), Human colorectal adenocarcinoma (Caco-2, BCRJ 0059), human prostate adenocarcinoma (DU-145, BCRJ-0078, and PC-3, BCRJ-0269), human mouth fibroblast (FGH, BCRJ-0089), and human prostate epithelial cells (PNT-2, BCRJ-0366) were obtained from Rio de Janeiro Cells Bank (BCRJ). The cells A549, A-375, Caco-2, DU-145, HepG2, MDA-MB-231, and FGH were cultured in Dulbecco’s Modified Eagle’s Medium (DMEM, Gibco-Invitrogen®), PC-3 and PNT-2 cells were grown in Roswell Park Memorial Institute Medium (RPMI-1640, Gibco-Invitrogen®). Both mediums were supplemented according to the needs of each lineage, as recommended by its cell banks with 2 mM L-glutamine (Gibco-Invitrogen®), 10% or 20% fetal bovine serum (Gibco-Invitrogen®), 1% antibiotic-antimycotic solution (5 mg/ml penicillin, 5 mg/ml streptomycin, and 10 mg/ml neomycin, Gibco-Invitrogen®), and 3.7 g/L of NaHCO3 (Sigma-Aldrich). All cell lines were cultured in flasks at 37°C in 5% CO2 and 96% of relative humidity according to the procedures proposed by ([31]), and a mycoplasma stain kit (Sigma-Aldrich) was used to confirm the use of cells devoid of contamination. The assays were conducted between the third and the seventh-cell passage with sub-cultures every 3 to 4 days to maintain exponential growth. The cell viability was checked using the trypan blue dye exclusion assay for all experiments where over 95% of the cells were viable at the beginning of the tests.
(§2) The in vitro antiproliferative activity was quantified using the Alamar blue® assay, according to the method reported by ([32]). Cells were seeded in 96-well plates for all experiments (1.5 × 10^4 cells/well). After 24 h, the complexes were dissolved in DMSO and added to each well and incubated for 24 h. Dilutions of the complexes were prepared to obtain concentrations ranging from 0.3 to 100 μM. […] DMSO (0.1% v/v) was used as the vehicle control. Following 24 h of incubation, 50 μl of Alamar blue® (resazurin at 0.01% w/v, Sigma-Aldrich) was added to each well, and the plates were incubated, at 37°C, in the dark. Fluorescence reading was performed in a Synergy H1 Fluorescence Spectrophotometer (BioTek®), using excitation and emission filters at wavelengths of 560 and 590 nm, respectively. The fluorescence intensity was measured in arbitrary fluorescence units (AFU) and the AFU of untreated cells (CTL) was considered 100%. The cytotoxic effects of the compounds were estimated in terms of cell proliferation inhibition (%) and expressed as half-maximal inhibitory concentration (IC50). The cell proliferation inhibition percentage of cells exposed to treatments was calculated following: % Inhibition = 100 − (AFU of treated well/AFU of control well) × 100). The IC50 values were calculated from the cell proliferation inhibition percentage by nonlinear regression method using CompusSyn® Software.

[2] = Partition coefficient (n-octanol/water), shake-flask method; type: physicochemical; settings: 24 h, 37°C, triplicate
Description: The octanol-water partition coefficients (log P) were quantified using the shake-flask method ([30]). Each complex was tested in a mixture of equal volumes of water and n-octanol with continuous shaking for 24 h at 112g and 37°C. Then the samples were centrifuged for 5 min at 10g, and the organic and aqueous phases were separated. The concentration of complex in each phase was measured spectrophotometrically to determine values of […]. The experiments were carried out in triplicate.

[3] = test system: MDA-MB-231 (human breast adenocarcinoma); test: Alamar blue cytotoxicity assay, MDA-MB-231; type: cell-based; settings: for IC50: MDA-MB-231, Alamar blue, 24-h incubation, mean ± S.E.M.
Excerpt: as §1, §2

[4] = test system: PC-3 (human prostate adenocarcinoma); test: Alamar blue cytotoxicity assay, PC-3; type: cell-based; settings: for IC50: PC-3, Alamar blue, 24-h incubation, mean ± S.E.M.
Excerpt: as §1, §2

DU-145 MCTSs = test: 3D multicellular tumor spheroids (MCTSs) culture; type: cell-based, human; settings: for IC50: 3D spheroids, 24 h, Alamar blue, read-out: IC50 against the DU-145 MCTSs
Description: Multicellular tumor spheroids (MCTSs) were obtained according to the method reported by ([33]). Briefly, 200 μl of a solution of DU-145 cells (2.0 × 10^3 cells/well) were inserted in agarose-coated 96-well plates (1.5% w/v) and cultured in complete medium plus 3% Matrigel® (Corning). DU-145-MCTSs with stable structures had formed after five days. […] Negative control received the vehicle (DMSO 0.1% v/v) that was used for diluting the compounds tested. Finally, the MCTS proliferation inhibition (%) and IC50 were determined by Alamar blue® assay as described above. To investigate morphological changes other MCTSs were treated with 0.25, 0.5, 1.0, 1.5, and 2.0 μM of complex (2) and examined for 7 days. Spheroid integrity and diameter of MCTSs were analyzed by phase-contrast microscopy (Inverted Trinocular Microscope Opton TNB-O5T-PL) using AxioVision LE software (Carl Zeiss, Germany).

[5] = test system: Caco-2 (human colorectal adenocarcinoma); test: Alamar blue cytotoxicity assay, Caco-2; type: cell-based; settings: for IC50: Caco-2, Alamar blue, 24-h incubation, mean ± S.E.M.
Excerpt: as §1, §2

[6] = test system: HepG2 (human hepatocellular carcinoma); test: Alamar blue cytotoxicity assay, HepG2; type: cell-based; settings: for IC50: HepG2, Alamar blue, 24-h incubation, mean ± S.E.M.
Excerpt: as §1, §2

[7] = test system: FGH (human mouth fibroblast); test: Alamar blue cytotoxicity assay, FGH non-cancer cells; type: cell-based; settings: 24-h incubation, mean ± S.E.M.
Excerpt: as §1, §2

[8] = test system: A-375 (human malignant melanoma); test: Alamar blue cytotoxicity assay, A-375; type: cell-based; settings: for IC50: A-375, Alamar blue, 24-h incubation, mean ± S.E.M.
Excerpt: as §1, §2

[9] = test system: PNT-2 (human prostate epithelial cells); test: Alamar blue cytotoxicity assay, PNT-2 non-cancer cells; type: cell-based; settings: 24-h incubation, mean ± S.E.M.
Excerpt: as §1, §2

[10] = test system: DU-145 (human prostate adenocarcinoma); test: Alamar blue cytotoxicity assay, DU-145; type: cell-based; settings: for IC50: DU-145, Alamar blue, 24-h incubation, mean ± S.E.M.
Excerpt: as §1, §2

[11] = SI = IC50[FGH]/IC50[MDA-MB-231]
[12] = SI = IC50[PNT-2]/IC50[MDA-MB-231]

| Compound | IC50 [1] [nM] | Selectivity index (SI) ([1]; SI = IC50[FGH]/IC50[A549]) | Selectivity index (SI) ([1]; SI = IC50[PNT-2]/IC50[A549]) | log P(o/w) [2] | IC50 [3] [nM] | Selectivity index (SI) [3, 11] | Selectivity index (SI) [3, 12] | IC50 [4] [nM] | Selectivity index (SI) ([4]; SI = IC50[FGH]/IC50[PC-3]) | Selectivity index (SI) ([4]; SI = IC50[PNT-2]/IC50[PC-3]) | IC50 (DU-145 MCTSs) [nM] | IC50 [5] [nM] | Selectivity index (SI) ([5]; SI = IC50[FGH]/IC50[Caco-2]) | Selectivity index (SI) ([5]; SI = IC50[PNT-2]/IC50[Caco-2]) | IC50 [6] [nM] | Selectivity index (SI) ([6]; SI = IC50[FGH]/IC50[HepG2]) | Selectivity index (SI) ([6]; SI = IC50[PNT-2]/IC50[HepG2]) | IC50 [7] [nM] | IC50 [8] [nM] | Selectivity index (SI) ([8]; SI = IC50[FGH]/IC50[A-375]) | also measured |
| --- | --- | --- | --- | --- | --- | --- | --- | --- | --- | --- | --- | --- | --- | --- | --- | --- | --- | --- | --- | --- | --- |
| CC(C)=CCC1=C([O-])C(=O)c2ccccc2C1=O.F[P-](F)(F)(F)(F)F.[Ru+2].c1ccc(-c2ccccn2)nc1.c1ccc(P(CP(c2ccccc2)c2ccccc2)c2ccccc2)cc1 [complex (1), [Ru(Lap)(dppm)(bipy)]PF6] | 3300 ± 400 | 0.9 | 1.8 | 0.617 ± 0.014 | 2100 ± 400 | 1.5 | 2.8 | 1300 ± 400 | 2.4 | 4.5 | 2400 | 2000 ± 600 | 1.5 | 2.9 | 1700 ± 500 | 1.8 | 3.5 | 3100 ± 200 | 2500 ± 600 | 1.2 | Selectivity index (SI) ([8]; SI = IC50[PNT-2]/IC50[A-375]): 2.4; IC50 [9]: 5900 ± 2100 nM; IC50 [10]: 900 ± 200 nM; Selectivity index (SI) ([10]; SI = IC50[FGH]/IC50[DU-145]): 3.4; Selectivity index (SI) ([10]; SI = IC50[PNT-2]/IC50[DU-145]): 6.5 |
| CC(C)=CCC1=C([O-])C(=O)c2ccccc2C1=O.F[P-](F)(F)(F)(F)F.[Ru+2].c1ccc(P(CP(c2ccccc2)c2ccccc2)c2ccccc2)cc1.c1cnc2c(c1)ccc1cccnc12 [complex (2), [Ru(Lap)(dppm)(phen)]PF6] | 2600 ± 100 | 1.0 | 2.6 | 0.839 ± 0.007 | 2000 | 1.2 | 3.4 | 1100 ± 300 | 2.2 | 6.2 | 1900 | 1200 ± 300 | 2.0 | 5.7 | 1500 ± 200 | 1.7 | 4.5 | 2500 ± 300 | 900 ± 300 | 2.7 | total spheroid area over time (DU-145 MCTSs; DU-145 MCTSs treated with 0.25-2.0 μM, examined for 7 days): decrease in the total spheroid area; more potent than cisplatin (fold) (DU-145 MCTSs; DU-145 MCTSs, IC50 ratio vs cisplatin): ≥ 32 fold; Selectivity index (SI) ([8]; SI = IC50[PNT-2]/IC50[A-375]): 7.5; IC50 [9]: 6800 ± 1500 nM; IC50 [10]: 800 ± 100 nM; cell viability with ROS scavenger NAC ([10]; DU-145, cotreatment with 5 mM NAC, 24 h, Alamar blue): prevented the reduction of cell viability; Selectivity index (SI) ([10]; SI = IC50[FGH]/IC50[DU-145]): 3.1; Selectivity index (SI) ([10]; SI = IC50[PNT-2]/IC50[DU-145]): 8.5 |
